In patent publication US20110288154A1, “RNA Interference Mediated Inhibition of Epithelial Sodium Channel (ENaC) Gene Expression Using Short Interfering Nucleic Acid (siNA)” (MERCK & CO., INC., priority 2008, published 2011):
[invAb] = inverted abasic unit; d = 2'-deoxy (DNA); m = 2'-O-methyl; r = 2'-OH (RNA); f = 2'-fluoro

Tested on: ENaCα mRNA
Experiment: Screening of ENaCα siNAs in human A549 cells (quantitative RT-PCR)
Assay type: cell-based
Design: Percent Reduction of the ENaCα mRNA relative to a non-targeting control siNA (NTC): concentration or dose not given beside the values
Settings: human A549 cells, n = 3; for Avg ENaCα Expression: 25 nM siNA with Lipofectamine 2000, harvested 24 hours post-transfection; for Mean (level of ENaCα expression normalized to the level of GAPDH) / Percent Reduction of the ENaCα mRNA relative to a non-targeting control siNA (NTC) / Avg GAPDH Expression: 24 hours post-transfection; for Avg GAPDH Expression: housekeeping gene used for normalisation
Method: siNA constructs (Table 1b) may be tested for efficacy in reducing ENaC RNA expression in, for example, A549 human lung carcinoma cells. A549 (human; ATCC cat# CCL-185) cells were cultured at 37° C. in the presence of 5% CO2 and grown in Ham's F12K medium with 2 mM L-glutamine adjusted to contain 1.5 g/L sodium bicarbonate and supplemented with fetal bovine serum at a final concentration of 10% and 100 U/mL penicillin. The A549 cells were plated approximately 24 hours before transfection in 96-well plates at 7,500 cells/well, 100 μl/well. After 24 hours complexes containing siNA and Lipofectamine 2000 (Invitrogen) were created as follows: a solution of Lipofectamine 2000 in OPTI-MEM was prepared containing Lipofectamine 2000 at a final concentration of 14 μg/ml. In parallel, solutions of the siNAs were prepared in OPTI-MEM at a final concentration of 150 nM. After both solutions were incubated at 20° C. for 20 minutes an equal volume of the siNA solutions and the Lipofectamine 2000 solution were added together for each of the siNAs. The resultant solution has the siNAs at a final concentration of 75 nM and Lipofectamine 2000 at a final concentration of 7 μg/ml. This solution was incubated at 20° C. for 20 minutes. After incubation 50 μl of the solution were added to each of the wells (in triplicate). The final concentration of siNA in each well was 25 nM and the final concentration of Lipofectamine 2000 in each well was 2.33 μg/ml. […] Dose response curves were determined in a similar manner with each concentration being done in triplicate and maintaining a constant amount of Lipofectamine 2000 in each transfection.
RNA was extracted from 96-well plates using the Invitek Invisorb RNA Cell HTS 96 Kit/C (Cat# 70619000) with a slightly modified protocol. The details of the protocol for isolating RNA from each plate are described as follows:
1) Aspirate media with rake 2) Add 150 ul/well Lysis buffer 3) Place on plate shaker for 1 minute 4) Place DNA binding plate on top of 0.5 ml collection plate 5) Pipette 190 ul up and down twice and add to DNA binding plate 6) Cover plate 7) Centrifuge plates 4 minutes at 4000 RPM 8) Discard DNA binding plate 9) Place the RNA binding plate on top of 2 ml collection plate 10) Add 150 ul/well of Binding Buffer R to 0.5 ml collection plate 11) Move contents of 0.5 ml collection plate to RNA binding plate 12) Let incubate for 1 minute 13) Centrifuge plates 4 minutes at 4000 RPM 14) Add 600 ul/well of Wash Buffer R1 to RNA binding plate 15) Centrifuge plates 4 minutes at 4000 RPM 16) Dump wash buffer from 2 ml collection plate 17) Add 400 ul/well of Wash Buffer R2 to RNA binding plate 18) Centrifuge plates 4 minutes at 4000 RPM 19) Add 400 ul/well of Wash Buffer R2 to RNA binding plate 20) Centrifuge plates 10 minutes at 4000 RPM 21) Dump wash buffer from 2 ml collection plate 22) Centrifuge plates 3 minutes at 4000 RPM 23) Discard 2 ml collection plate and place RNA binding plate on to microtiter plate 24) Add 100 ul/well of elution buffer to RNA binding plate 25) Incubate for 2 minutes 26) Seal plate 27) Centrifuge plates 3 minutes at 4000 RPM 28) Discard RNA binding plate 29) Cover microtiter plate for storage in −80 freezer
A series of probes and primers were used to detect the various mRNA transcripts of the genes of ENaCa and GAPDH in mouse, rat, and human cell lines. The assays were performed on an ABI 7500 instrument, according to the manufacturer's instructions. Within each experiment, the baseline was set in the exponential phase of the amplification curve, and based on the intersection point of the baselines with the amplification curve, a Ct value was assigned by the instrument. This Ct value was then assigned a QTY value based on the Standard Curve. The standard curve in the various experiments herein used 1 ng to 300 ng of RNA extracted from the same cell line used for the experimental transfections. […]

Substance	Avg ENaCα Expression	Mean (level of ENaCα expression normalized to the level of GAPDH)	Percent Reduction of the ENaCα mRNA relative to a non-targeting control siNA (NTC) [%]	Avg GAPDH Expression
B AAccGCAuGAAGAcGGccu TTB / AGGccGucuucAuGcGGuuUU (chain 1 AACCGCAUGAAGACGGCCUTT; chain 2 AGGCCGUCUUCAUGCGGUUUU; siRNA; chain 1: sugars from the 5' end ddffdddfdddddfddfffdd, [invAb] at 5' end, 3' end, backbone not given here; chain 2: sugars from the 5' end rrrffmfffffmfmfmmffmm, backbone not given here) [Site 337]	67.27	1.48	5.0	49.84
B AAccuGGGcAGccAGuGGA TTB / UCCAcuGGcuGcccAGGuuUU (sense AACCUGGGCAGCCAGUGGATT; antisense UCCACUGGCUGCCCAGGUUUU; siRNA; sense: sugars from the 5' end ddfffdddfddffddfddrdd, [invAb] at 5' end, 3' end, backbone not given here; antisense: sugars from the 5' end rrrmffmmffmfffmmmffmm, backbone not given here) [Site 1747]	75.36	0.58	12.3	130.33
B AGccAGuGGAGccuGuGGu TTB / ACCAcAGGcuccAcuGGcuUU (sense AGCCAGUGGAGCCUGUGGUTT; antisense ACCACAGGCUCCACUGGCUUU; siRNA; sense: DNA at AGT, 2'-fluoro at CU, [invAb] at 5' end, 3' end, backbone not given here; antisense: sugars from the 5' end rrrmfmmmffffmffmmffmm, backbone not given here) [Site 1756]	73.20	0.71	−8.2	102.64
B AGuGuGGcuGuGccuAcAu TTB / AUGuAGGcAcAGccAcAcuUU (sense AGUGUGGCUGUGCCUACAUTT; antisense AUGUAGGCACAGCCACACUUU; siRNA; sense: DNA at AGT, 2'-fluoro at CU, [invAb] at 5' end, 3' end, backbone not given here; antisense: sugars from the 5' end rrrfmmmfmfmmffmfmffmm, backbone not given here) [Site 1382]	72.49	1.30	16.6	57.29
B AccGcAuGAAGAcGGccuu TTB / AAGGccGucuucAuGcGGuUU (chain 1 ACCGCAUGAAGACGGCCUUTT; chain 2 AAGGCCGUCUUCAUGCGGUUU; siRNA; chain 1: DNA at AGT, 2'-fluoro at CU, [invAb] at 5' end, 3' end, backbone not given here; chain 2: sugars from the 5' end rrrmffmfffffmfmfmmfmm, backbone not given here) [Site 338]	65.83	0.90	42.2	76.32
B AccuGGGcAGccAGuGGAG TTB / CUCcAcuGGcuGcccAGGuUU (sense ACCUGGGCAGCCAGUGGAGTT; antisense CUCCACUGGCUGCCCAGGUUU; siRNA; sense: DNA at AGT, 2'-fluoro at CU, [invAb] at 5' end, 3' end, backbone not given here; antisense: sugars from the 5' end rrrfmffmmffmfffmmmfmm, backbone not given here) [Site 1748]	80.25	0.61	7.2	131.14
B GGGcAGccAGuGGAGccuG TTB / CAGGcuccAcuGGcuGcccUU (sense GGGCAGCCAGUGGAGCCUGTT; antisense CAGGCUCCACUGGCUGCCCUU; siRNA; sense: DNA at AGT, 2'-fluoro at CU, [invAb] at 5' end, 3' end, backbone not given here; antisense: sugars from the 5' end rrrmffffmffmmffmfffmm, backbone not given here) [Site 1752]	82.06	0.60	9.4	137.51
B GGcAGccAGuGGAGccuGu TTB / ACAGGcuccAcuGGcuGccUU (sense GGCAGCCAGUGGAGCCUGUTT; antisense ACAGGCUCCACUGGCUGCCUU; siRNA; sense: DNA at AGT, 2'-fluoro at CU, [invAb] at 5' end, 3' end, backbone not given here; antisense: sugars from the 5' end rrrmmffffmffmmffmffmm, backbone not given here) [Site 1753]	84.05	0.66	0.6	128.19
B GGcuGuGccuAcAucuucu TTB / AGAAGAuGucGGcAcAGccUU (sense GGCUGUGCCUACAUCUUCUTT; antisense AGAAGAUGUCGGCACAGCCUU; siRNA; sense: DNA at AGT, 2'-fluoro at CU, [invAb] at 5' end, 3' end, backbone not given here; antisense: sugars from the 5' end rrrmmmfmffmmfmfmmffmm, backbone not given here) [Site 1387]	46.10	0.43	34.2	106.19
B GcAuGAAGAcGGccuucuG TTB / CAGAAGGccGuCuucAuGcUU (chain 1 GCAUGAAGACGGCCUUCUGTT; chain 2 CAGAAGGCCGUCUUCAUGCUU; siRNA; chain 1: DNA at AGT, 2'-fluoro at CU, [invAb] at 5' end, 3' end, backbone not given here; chain 2: sugars from the 5' end rrrmmmmffmfmfffmfmfmm, backbone not given here) [Site 341]	62.42	1.62	−4.3	48.12
B GccAGuGGAGccuGuGGuu TTB / AACcAcAGGcuccAcuGGcUU (sense GCCAGUGGAGCCUGUGGUUTT; antisense AACCACAGGCUCCACUGGCUU; siRNA; sense: DNA at AGT, 2'-fluoro at CU, [invAb] at 5' end, 3' end, backbone not given here; antisense: sugars from the 5' end rrrfmfmmmffffmffmmfmm, backbone not given here) [Site 1757]	66.53	0.66	0.0	101.11
